Measurements from ChEMBL document CHEMBL1152560, “Substituted 2-arylbenzothiazoles as kinase inhibitors: hit-to-lead optimization” (Bioorg Med Chem, 2009).

Experiments:
[1] = molecular target: Serine/threonine-protein kinase PAK 2 (Homo sapiens) (UniProt Q13177); test: Residual activity of PAK2 at 1 uM by microplate scintillation counting
[2] = molecular target: CDK3/cyclin E (Homo sapiens) (UniProt P24864+O96020+Q00526); test: Residual activity of CDK3/Cyclin E at 1 uM by microplate scintillation counting; format: protein-complex assay
[3] = molecular target: T1, Serine/threonine-protein kinase NLK (Homo sapiens) (UniProt Q9UBE8); test: Residual activity of NLK at 0.1 uM by microplate scintillation counting
T1 sequence (whole entry): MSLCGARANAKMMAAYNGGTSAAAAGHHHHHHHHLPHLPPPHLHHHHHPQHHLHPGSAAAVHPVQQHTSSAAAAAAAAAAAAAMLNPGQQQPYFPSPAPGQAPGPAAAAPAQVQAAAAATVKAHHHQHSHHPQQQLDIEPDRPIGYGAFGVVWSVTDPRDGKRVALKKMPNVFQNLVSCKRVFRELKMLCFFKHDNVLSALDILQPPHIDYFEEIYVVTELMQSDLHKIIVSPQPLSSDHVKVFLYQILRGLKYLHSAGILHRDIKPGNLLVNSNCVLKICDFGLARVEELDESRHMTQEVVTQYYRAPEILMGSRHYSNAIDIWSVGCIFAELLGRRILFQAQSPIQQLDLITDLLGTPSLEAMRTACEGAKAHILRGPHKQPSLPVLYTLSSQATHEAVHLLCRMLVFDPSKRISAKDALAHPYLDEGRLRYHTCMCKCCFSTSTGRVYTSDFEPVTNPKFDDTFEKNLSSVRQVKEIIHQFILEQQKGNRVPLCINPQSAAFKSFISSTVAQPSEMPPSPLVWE

[4] = molecular target: T2, Inhibitor of nuclear factor kappa-B kinase subunit epsilon (Homo sapiens) (UniProt Q14164); test: Residual activity of IKKepsilon at 1 uM by microplate scintillation counting
T2 sequence (whole entry): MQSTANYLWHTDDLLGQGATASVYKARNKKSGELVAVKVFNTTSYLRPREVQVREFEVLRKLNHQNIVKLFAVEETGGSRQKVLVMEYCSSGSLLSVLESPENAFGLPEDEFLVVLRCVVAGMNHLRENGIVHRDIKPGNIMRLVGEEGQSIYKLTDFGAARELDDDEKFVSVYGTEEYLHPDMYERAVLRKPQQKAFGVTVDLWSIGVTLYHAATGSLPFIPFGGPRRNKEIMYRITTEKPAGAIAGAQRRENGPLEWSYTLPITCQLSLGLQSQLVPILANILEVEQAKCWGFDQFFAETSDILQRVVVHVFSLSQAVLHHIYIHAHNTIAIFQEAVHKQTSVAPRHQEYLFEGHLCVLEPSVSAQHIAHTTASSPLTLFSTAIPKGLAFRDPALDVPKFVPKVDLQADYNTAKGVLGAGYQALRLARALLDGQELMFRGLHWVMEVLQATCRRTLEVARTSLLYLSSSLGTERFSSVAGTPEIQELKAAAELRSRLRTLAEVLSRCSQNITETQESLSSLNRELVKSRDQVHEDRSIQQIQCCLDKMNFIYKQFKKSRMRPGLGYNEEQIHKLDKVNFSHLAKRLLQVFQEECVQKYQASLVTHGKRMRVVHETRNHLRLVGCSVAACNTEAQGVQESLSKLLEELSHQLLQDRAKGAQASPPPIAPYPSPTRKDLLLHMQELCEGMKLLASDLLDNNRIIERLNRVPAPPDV

[5] = molecular target: Maternal embryonic leucine zipper kinase (Homo sapiens) (UniProt Q14680); test: Residual activity of MELK at 0.1 uM by microplate scintillation counting
Chain of Maternal embryonic leucine zipper kinase (Homo sapiens) (Q14680 whole entry, looked up): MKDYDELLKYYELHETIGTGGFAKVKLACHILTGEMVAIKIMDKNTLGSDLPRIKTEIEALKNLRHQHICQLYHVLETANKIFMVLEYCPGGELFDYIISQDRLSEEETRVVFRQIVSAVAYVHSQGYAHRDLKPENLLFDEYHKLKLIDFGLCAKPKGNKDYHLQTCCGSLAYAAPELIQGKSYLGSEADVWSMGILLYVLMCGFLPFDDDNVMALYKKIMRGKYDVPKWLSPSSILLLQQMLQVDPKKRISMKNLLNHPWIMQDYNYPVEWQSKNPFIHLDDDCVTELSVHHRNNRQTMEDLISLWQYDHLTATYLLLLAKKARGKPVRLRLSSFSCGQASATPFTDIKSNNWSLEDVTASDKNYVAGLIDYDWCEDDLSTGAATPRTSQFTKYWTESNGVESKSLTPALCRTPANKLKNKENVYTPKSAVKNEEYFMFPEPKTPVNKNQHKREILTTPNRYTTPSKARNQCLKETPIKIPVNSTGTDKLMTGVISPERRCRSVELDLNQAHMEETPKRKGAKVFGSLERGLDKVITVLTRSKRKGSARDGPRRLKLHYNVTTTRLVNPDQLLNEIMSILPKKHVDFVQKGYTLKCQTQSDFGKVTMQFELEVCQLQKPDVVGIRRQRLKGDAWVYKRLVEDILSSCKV

[6] = molecular target: Serine/threonine-protein kinase Nek7 (Homo sapiens) (UniProt Q8TDX7); test: Residual activity of NEK7 at 1 uM by microplate scintillation counting
Chain of Serine/threonine-protein kinase Nek7 (Homo sapiens) (Q8TDX7 whole entry, looked up): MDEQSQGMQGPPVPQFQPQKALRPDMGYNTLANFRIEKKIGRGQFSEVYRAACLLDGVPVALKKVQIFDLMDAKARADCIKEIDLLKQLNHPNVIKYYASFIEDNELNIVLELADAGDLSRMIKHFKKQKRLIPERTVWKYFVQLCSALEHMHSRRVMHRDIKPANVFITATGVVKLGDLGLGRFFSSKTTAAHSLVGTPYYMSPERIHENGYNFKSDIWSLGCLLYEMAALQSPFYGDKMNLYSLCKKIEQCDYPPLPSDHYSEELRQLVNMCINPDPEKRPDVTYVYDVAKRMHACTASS

[7] = molecular target: T1, Serine/threonine-protein kinase NLK (Homo sapiens); test: Residual activity of NLK at 10 uM by microplate scintillation counting
[8] = molecular target: G protein-coupled receptor kinase 4 (Homo sapiens) (UniProt P32298); test: Residual activity of GRK4 at 0.1 uM by microplate scintillation counting
Chain of G protein-coupled receptor kinase 4 (Homo sapiens) (P32298 whole entry, looked up): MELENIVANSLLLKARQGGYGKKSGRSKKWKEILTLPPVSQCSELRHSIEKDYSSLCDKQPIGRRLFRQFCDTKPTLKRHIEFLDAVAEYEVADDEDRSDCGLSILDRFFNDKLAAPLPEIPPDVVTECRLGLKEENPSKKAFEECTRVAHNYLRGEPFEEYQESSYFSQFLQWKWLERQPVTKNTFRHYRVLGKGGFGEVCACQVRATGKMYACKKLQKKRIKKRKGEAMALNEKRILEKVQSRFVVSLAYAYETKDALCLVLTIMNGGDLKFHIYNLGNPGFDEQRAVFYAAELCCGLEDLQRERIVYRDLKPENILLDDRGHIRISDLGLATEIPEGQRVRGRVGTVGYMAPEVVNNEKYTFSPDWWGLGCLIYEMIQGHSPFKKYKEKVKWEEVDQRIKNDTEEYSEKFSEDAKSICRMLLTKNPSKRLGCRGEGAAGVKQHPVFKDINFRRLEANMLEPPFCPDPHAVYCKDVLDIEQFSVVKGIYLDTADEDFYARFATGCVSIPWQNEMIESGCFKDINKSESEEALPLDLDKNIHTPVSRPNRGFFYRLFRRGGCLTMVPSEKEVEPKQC

[9] = system: Tyrosine-protein kinase ABL1 (Homo sapiens), P00519 [T315I]; test: Residual activity of ABL1 T315I mutant at 1 uM by microplate scintillation counting
[10] = Residual activity of S6K at 10 uM by microplate scintillation counting
[11] = molecular target: Mitogen-activated protein kinase 14 (Homo sapiens) (UniProt Q16539); test: Residual activity of p38alpha at 0.1 uM by microplate scintillation counting
Chain of Mitogen-activated protein kinase 14 (Homo sapiens) (Q16539 whole entry): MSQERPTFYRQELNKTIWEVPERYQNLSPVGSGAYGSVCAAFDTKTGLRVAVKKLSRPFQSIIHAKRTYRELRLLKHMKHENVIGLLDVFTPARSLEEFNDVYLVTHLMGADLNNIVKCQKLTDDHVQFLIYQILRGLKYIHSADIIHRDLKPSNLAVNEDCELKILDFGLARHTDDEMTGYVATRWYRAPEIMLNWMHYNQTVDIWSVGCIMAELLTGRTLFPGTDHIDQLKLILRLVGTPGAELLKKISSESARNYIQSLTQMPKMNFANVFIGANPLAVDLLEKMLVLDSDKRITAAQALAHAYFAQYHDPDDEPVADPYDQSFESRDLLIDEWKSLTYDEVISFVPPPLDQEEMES

[12] = molecular target: T3, Muscle, skeletal receptor tyrosine-protein kinase (Homo sapiens) (UniProt O15146); test: Residual activity of MUSK at 1 uM by microplate scintillation counting
T3 sequence (whole entry): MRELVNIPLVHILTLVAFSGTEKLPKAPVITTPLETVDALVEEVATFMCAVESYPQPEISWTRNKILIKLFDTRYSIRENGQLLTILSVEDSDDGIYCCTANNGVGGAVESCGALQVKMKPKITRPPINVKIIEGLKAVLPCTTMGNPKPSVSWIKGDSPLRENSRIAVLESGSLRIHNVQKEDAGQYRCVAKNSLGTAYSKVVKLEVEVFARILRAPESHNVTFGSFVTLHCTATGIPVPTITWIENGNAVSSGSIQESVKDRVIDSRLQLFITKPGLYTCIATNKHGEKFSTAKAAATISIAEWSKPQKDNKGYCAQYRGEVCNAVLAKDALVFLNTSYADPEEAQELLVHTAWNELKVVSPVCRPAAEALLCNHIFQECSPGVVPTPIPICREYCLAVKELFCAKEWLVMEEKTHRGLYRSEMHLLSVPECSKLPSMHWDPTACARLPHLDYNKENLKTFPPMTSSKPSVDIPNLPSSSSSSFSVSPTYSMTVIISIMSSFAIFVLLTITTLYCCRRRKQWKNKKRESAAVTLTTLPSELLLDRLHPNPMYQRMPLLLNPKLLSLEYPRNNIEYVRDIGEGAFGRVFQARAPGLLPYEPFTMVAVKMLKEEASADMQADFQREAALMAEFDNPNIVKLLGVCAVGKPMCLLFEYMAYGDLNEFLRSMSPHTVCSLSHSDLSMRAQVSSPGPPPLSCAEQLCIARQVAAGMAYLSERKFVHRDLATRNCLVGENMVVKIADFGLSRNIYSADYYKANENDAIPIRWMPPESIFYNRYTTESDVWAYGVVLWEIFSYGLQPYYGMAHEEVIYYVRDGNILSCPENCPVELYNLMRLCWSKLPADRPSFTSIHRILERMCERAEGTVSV

[13] = molecular target: Calcium/calmodulin-dependent protein kinase type II subunit delta (Homo sapiens) (UniProt Q13557); test: Residual activity of CAMK2D at 10 uM by microplate scintillation counting
Chain of Calcium/calmodulin-dependent protein kinase type II subunit delta (Homo sapiens) (Q13557 whole entry): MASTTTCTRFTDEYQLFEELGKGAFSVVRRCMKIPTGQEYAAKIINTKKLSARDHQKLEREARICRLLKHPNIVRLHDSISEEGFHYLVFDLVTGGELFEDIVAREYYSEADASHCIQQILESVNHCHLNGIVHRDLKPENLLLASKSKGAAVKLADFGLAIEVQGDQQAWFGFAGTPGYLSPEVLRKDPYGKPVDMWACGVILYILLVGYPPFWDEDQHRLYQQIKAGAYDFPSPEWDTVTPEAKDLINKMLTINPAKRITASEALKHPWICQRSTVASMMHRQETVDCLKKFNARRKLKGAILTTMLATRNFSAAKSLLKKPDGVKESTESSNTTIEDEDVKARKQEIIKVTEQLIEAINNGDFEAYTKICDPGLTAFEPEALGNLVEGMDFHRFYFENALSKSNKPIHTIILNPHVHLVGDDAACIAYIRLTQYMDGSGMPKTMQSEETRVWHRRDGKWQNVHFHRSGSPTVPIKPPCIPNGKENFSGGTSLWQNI

[14] = molecular target: Ephrin type-A receptor 5 (Homo sapiens) (UniProt P54756); test: Residual activity of EPHA5 at 0.1 uM by microplate scintillation counting
Chain of Ephrin type-A receptor 5 (Homo sapiens) (P54756 whole entry, canonical isoform): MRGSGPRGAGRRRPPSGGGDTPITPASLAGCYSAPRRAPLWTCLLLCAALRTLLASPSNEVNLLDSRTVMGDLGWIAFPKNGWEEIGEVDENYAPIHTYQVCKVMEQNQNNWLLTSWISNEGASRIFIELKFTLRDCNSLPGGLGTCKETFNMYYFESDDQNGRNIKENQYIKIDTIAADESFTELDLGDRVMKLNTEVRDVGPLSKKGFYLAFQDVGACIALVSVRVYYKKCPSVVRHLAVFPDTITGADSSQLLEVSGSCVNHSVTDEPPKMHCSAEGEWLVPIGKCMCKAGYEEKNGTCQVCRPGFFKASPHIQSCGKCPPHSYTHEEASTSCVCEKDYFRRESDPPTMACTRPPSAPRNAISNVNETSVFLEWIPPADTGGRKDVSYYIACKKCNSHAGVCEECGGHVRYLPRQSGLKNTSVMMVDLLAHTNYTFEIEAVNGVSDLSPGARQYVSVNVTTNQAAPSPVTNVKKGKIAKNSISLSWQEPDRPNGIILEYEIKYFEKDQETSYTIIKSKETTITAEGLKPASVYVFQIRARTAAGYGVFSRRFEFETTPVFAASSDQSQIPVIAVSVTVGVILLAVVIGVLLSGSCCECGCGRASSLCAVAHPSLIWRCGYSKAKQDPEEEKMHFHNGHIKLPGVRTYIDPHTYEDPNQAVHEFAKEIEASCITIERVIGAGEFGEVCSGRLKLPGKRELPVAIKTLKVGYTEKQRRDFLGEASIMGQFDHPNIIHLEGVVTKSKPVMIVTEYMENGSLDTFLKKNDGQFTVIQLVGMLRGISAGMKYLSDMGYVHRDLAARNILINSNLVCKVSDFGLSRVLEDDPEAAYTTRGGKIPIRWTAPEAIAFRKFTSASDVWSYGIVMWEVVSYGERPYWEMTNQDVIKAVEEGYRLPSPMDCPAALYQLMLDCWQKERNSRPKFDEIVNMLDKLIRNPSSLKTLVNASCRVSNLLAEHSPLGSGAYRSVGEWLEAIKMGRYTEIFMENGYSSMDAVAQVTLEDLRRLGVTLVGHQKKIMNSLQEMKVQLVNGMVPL

[15] = molecular target: Casein kinase I isoform gamma-1 (Homo sapiens) (UniProt Q9HCP0); test: Residual activity of CK1gamma1 at 1 uM by microplate scintillation counting
Chain of Casein kinase I isoform gamma-1 (Homo sapiens) (Q9HCP0 whole entry, looked up, canonical isoform): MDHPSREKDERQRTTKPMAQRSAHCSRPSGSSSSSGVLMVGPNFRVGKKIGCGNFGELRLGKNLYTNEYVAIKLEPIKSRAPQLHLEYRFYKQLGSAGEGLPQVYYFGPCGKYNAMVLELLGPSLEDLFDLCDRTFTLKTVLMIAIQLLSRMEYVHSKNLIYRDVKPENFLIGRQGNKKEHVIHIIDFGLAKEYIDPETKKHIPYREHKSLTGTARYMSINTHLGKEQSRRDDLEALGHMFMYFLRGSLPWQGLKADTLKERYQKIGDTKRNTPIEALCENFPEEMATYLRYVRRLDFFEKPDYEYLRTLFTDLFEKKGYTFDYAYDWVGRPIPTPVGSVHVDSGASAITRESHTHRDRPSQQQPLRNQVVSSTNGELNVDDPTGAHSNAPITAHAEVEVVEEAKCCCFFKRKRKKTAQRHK

Chain of Serine/threonine-protein kinase PAK 2 (Homo sapiens) (Q13177 whole entry): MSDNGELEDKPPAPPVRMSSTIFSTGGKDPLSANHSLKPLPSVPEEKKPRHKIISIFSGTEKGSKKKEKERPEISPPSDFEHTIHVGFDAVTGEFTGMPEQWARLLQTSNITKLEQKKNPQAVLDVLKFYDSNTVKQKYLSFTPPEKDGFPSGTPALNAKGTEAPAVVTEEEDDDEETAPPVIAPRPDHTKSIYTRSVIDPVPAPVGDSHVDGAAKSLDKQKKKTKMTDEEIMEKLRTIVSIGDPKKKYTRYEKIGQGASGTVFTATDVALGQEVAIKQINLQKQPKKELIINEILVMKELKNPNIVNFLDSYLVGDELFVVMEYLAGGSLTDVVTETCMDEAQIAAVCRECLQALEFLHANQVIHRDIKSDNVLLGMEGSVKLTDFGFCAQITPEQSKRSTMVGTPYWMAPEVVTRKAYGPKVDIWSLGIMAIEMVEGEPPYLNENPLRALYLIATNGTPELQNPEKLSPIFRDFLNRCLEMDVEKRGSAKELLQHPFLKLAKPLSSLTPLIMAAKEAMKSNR

| residual activity [1] [%] | residual activity [2] [%] | residual activity [3] [%] | residual activity [4] [%] | residual activity [5] [%] | residual activity [6] [%] | residual activity [7] [%] | residual activity [8] [%] | residual activity [9] [%] | residual activity [10] [%] | residual activity [11] [%] | residual activity [12] [%] | residual activity [13] [%] | residual activity [14] [%] | residual activity [15] [%] | Structure (SMILES) |
| --- | --- | --- | --- | --- | --- | --- | --- | --- | --- | --- | --- | --- | --- | --- | --- |
| 102 | 89 | 90 | 98 | 34 | 104 | 90 | 90 | 95 | 37 | 100 | 94 | 13 | 103 | 97 | COc1cc2c(Oc3ccc(-c4nc5ccccc5s4)cc3)ncnc2cc1OCCCN1CCCC1 |
| 103 | 79 | 91 | 81 | 60 | 103 | 114 | 88 | 96 | 36 | 101 | 88 | 44 | 97 | 110 | COc1cc2c(Oc3ccc(-c4nc5ccccc5s4)cc3F)ncnc2cc1OCCCN1CCN(C)CC1 |
| 124 | 85 | 94 | 90 | 111 | 95 | 113 | 84 | 103 | 29 | 93 | 89 | 28 | 81 | 112 | COc1cc2c(Oc3ccc(-c4nc5ccccc5s4)cc3)ncnc2cc1OCCCN1CCN(C)CC1 |
